In US20130287807A1, “COMPOUNDS FOR TREATING SYMPTOMS ASSOCIATED WITH PARKINSON'S DISEASE” (priority 2008, published 2013):
Blank lines part the entries; values can stand above or below the molecule they belong to. Ends that are not written are not given here.

Tests used:
[1] = system: monoclonal antibody MV-002; assay: In vitro binding assay (ELISA), BSA-coupled peptides, parental antibody MV-002; design: species or system C57/B16 mice; settings: Table 1 (MV-002); peptide-BSA on plate, compared to original epitope
In short: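 BSA-conjugated phage-display peptides and variants coated on ELISA plates at 1 μM, then incubated with the monoclonal antibody used for the screen. Binding capacity given as 1:X, the dilution factor of the parental antibody; Ac- marks acetylated amino acids.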

[2] = system: monoclonal antibody MV-002; assay: In vitro inhibition assay (ELISA), MV-002 binding to original epitope; design: species or system C57/B16 mice; settings: for inhibition of binding of monoclonal antibody in in vitro competition experiments: MV-002 mimotopes; for Inhibition Capacity: Table 2 (MV-002), OD at 5 ug peptide compared to original peptide
Protocol: (§1) Different amounts of peptides (concentrations ranging from 10 μg to 0.08 μg; serial dilutions; for MV-002: concentrations ranging from 5 μg to 0.03 μg; serial dilutions), derived from Phage Display were incubated with the monoclonal antibody that was used for the screening procedure. Peptides diminishing subsequent binding of the antibody to the original epitope coated on ELISA plates were considered as inhibiting in this assay.
(§2) Legend to Table 2: the inhibition capacity is coded by the following code: Weak inhibition means more peptide is required to lower AB binding than with the original epitope; strong inhibition means similar peptide amounts are required for mimotope and original epitope for lowering AB binding. Mimotopes are compared to the original peptide as standard. OD at 5 ug peptide used in the assay is used to calculate the competition capacity compared to original peptide.

[3] = system: injected peptide (mimotope-BSA conjugate); assay: Mimotope vaccination, serum titer ELISA against injected peptide; type: in vivo, C57/B16 mice; settings: 30 μg peptide-KLH s.c. with alum, anti-mouse IgG
Protocol: (§3) Inhibiting as well as non-inhibiting peptides were coupled to KLH and injected into mice (wildtype C57/B16 mice; subcutaneous injection into the flank) together with an appropriate adjuvant (aluminium hydroxide). Animals were vaccinated 3-6 times in biweekly intervals and sera were taken biweekly as well. Titers to injected peptides, as well as to an irrelevant peptide were determined with every serum. Furthermore, titers against the recombinant human Aβ protein, and against original peptides were determined respectively. In general sera were analysed by reaction against peptides coupled to Bovine Serum Albumin (BSA) and recombinant full length proteins which were immobilised on ELISA plates. Titers were determined using anti mouse IgG specific antibodies. For detailed results see FIGS. 15, 16 and 17 respectively and FIGS. 23, 24 and 25 respectively.
(§4) Female C57/b16 mice, 5-6 mice per group, were subcutaneously immunized with 30 μg peptide coupled to KLH. Control groups were administered original epitope-KLH conjugates respectively. As adjuvant alum was used (always 1 mg per mouse). […] The in vitro ELISA assay to determine the antibody titer was performed with sera of single mice after each vaccination in a two week interval (see FIGS. 15 and 16 respectively). The wells of the ELISA plate were coated with mimotope-BSA conjugate and an irrelevant peptide-BSA conjugate (negative control). The positive control was performed by reaction of the parental antibody with the respective mimotope-BSA conjugate. The detection was performed with anti-mouse IgG. Additionally, recombinant proteins were immobilised on ELISA plates and sera reacted accordingly. FIGS. 15 to 17 show representative examples for assays used to characterise mimotopes in vivo.
as §4, with “FIGS. 25” for “FIGS. 15”, “and 26” for “and 16”, “respectively). Titers were calculated as OD max/2 in all figures shown.” for “respectively).”, “FIGS. 23, 24 and 25” for “FIGS. 15 to 17”

[4] = system: irrelevant peptide p1454; assay: Mimotope vaccination, serum titer ELISA against irrelevant peptide; type: in vivo, C57/B16 mice; settings: 30 μg peptide-KLH s.c. with alum
Protocol: as §3, §4
as §4, with “FIGS. 25” for “FIGS. 15”, “and 26” for “and 16”, “respectively). Titers were calculated as OD max/2 in all figures shown.” for “respectively).”, “FIGS. 23, 24 and 25” for “FIGS. 15 to 17”

[5] = system: p4377; assay: Mimotope vaccination, serum ELISA against p4377; type: in vivo, C57/B16 mice; settings: peptide-KLH vaccines with alum; FIG. 24
Protocol: as §3
as §4, with “FIGS. 25” for “FIGS. 15”, “and 26” for “and 16”, “respectively). Titers were calculated as OD max/2 in all figures shown.” for “respectively).”, “FIGS. 23, 24 and 25” for “FIGS. 15 to 17”

[6] = system: Aβ/truncated/modified forms; assay: In vivo characterisation of mimotopes: detection of Aβ/truncated/modified forms; design: species or system C57/B16 mice; key: +: All peptides listed in table 4 mount specific immune reactions against full length and/or truncated and modified forms of Aβ or fragments thereof; settings: Table 4, MV-002 derived mimotopes
Protocol: as §3, §4
as §4, with “FIGS. 25” for “FIGS. 15”, “and 26” for “and 16”, “respectively). Titers were calculated as OD max/2 in all figures shown.” for “respectively).”, “FIGS. 23, 24 and 25” for “FIGS. 15 to 17”

[7] = system: monoclonal antibody MV-004; assay: In vitro binding assay (ELISA), BSA-coupled peptides, parental antibody MV-004; design: species or system BalbC mice; settings: Table 1B; peptide-BSA on plate, compared to original epitope
Protocol: Peptides derived from Phage Display as well as variants thereof were coupled to BSA and bound to ELISA plates (1 μM; as indicated in the respective figures) and subsequently incubated with the monoclonal antibody that was used for the screening procedure to analyse binding capacity of identified peptides.
Legend to Table 1B: the binding capacity is coded by the following binding code: 1:X describes the dilution factor of the parental AB.

[8] = system: monoclonal antibody MV-004; assay: In vitro inhibition assay (ELISA), MV-004 binding to original epitope; design: species or system BalbC mice; settings: Table 2B; OD at 10 ug peptide compared to original peptide
Protocol: as §1
as §2, with “2B:” for “2:”, “10” for “5”

[9] = target: monoclonal antibody MV-001; assay: ELISA on peptide-BSA; code 1 = weak binding, OD halfmax 1:<4000
[10] = target: monoclonal antibody MV-001; assay: inhibition ELISA, competitor coated original epitope p4371; code 1 = weaker than original epitope
[11] = target: monoclonal antibody MV-002; assay: ELISA on peptide-BSA; code 2 = medium binding, OD halfmax 1:40000-320000

- Binding Capacity [1]: 3 (strong binding :>320000)
- inhibition of binding of monoclonal antibody in in vitro competition experiments [2]: active in in vitro inhibition assays
Molecule: HMRLFFNC [p4670]
- Inhibition Capacity [2]: 1 (Weaker than original epitope (OD of peptide below 4, 6 times of original peptide))
- immune response against injected peptide [3]: elicited immune responses
- immune response against unrelated sequence (p1454) [4]: failed to induce a relevant unspecific immune response
- immune response against original epitope p4377 [5]: mounted detectable immune responses
- Detection of Aβ/truncated/modified forms [6]: +

- Binding Capacity [7]: 1 (weak binding :<24000)
Molecule: ERWHEKC [p4790]
- Inhibition Capacity [8]: 2 (strong inhibition (as original epitope; OD of 10 ug peptide below 2 times of original peptide))

- Binding Capacity [7]: 2 (medium binding :24-96000)
Molecule: ELWHRAFC [p4665]
- Inhibition Capacity [8]: 2 (strong inhibition (as original epitope; OD of 10 ug peptide below 2 times of original peptide))

- Binding Capacity [1]: 3 (strong binding :>320000)
- inhibition of binding of monoclonal antibody in in vitro competition experiments [2]: active in in vitro inhibition assays
Molecule: GEIYFERC [p4681]
- Inhibition Capacity [2]: 2 (strong inhibition (as original epitope; OD of peptide below 2, 3 times of original peptide))
- immune response against injected peptide [3]: elicited immune responses
- immune response against unrelated sequence (p1454) [4]: failed to induce a relevant unspecific immune response
- immune response against original epitope p4377 [5]: mounted detectable immune responses
- Detection of Aβ/truncated/modified forms [6]: +

- Binding Capacity [7]: 2 (medium binding :24-96000)
Molecule: ELWHRYPC [p4420]
- Inhibition Capacity [8]: 1 (Weaker than original epitope (OD of 10 ug peptide below 5 times of original peptide))

- Binding Capacity [7]: 1 (weak binding :<24000)
Molecule: EVWHRHC [p4789]
- Inhibition Capacity [8]: 1 (Weaker than original epitope (OD of 10 ug peptide below 5 times of original peptide))

- Binding Capacity [1]: 1 (weak binding :<40000)
- inhibition of binding of monoclonal antibody in in vitro competition experiments [2]: without inhibition capacity
Molecule: SHTRLYFC [p4403]
- immune response against injected peptide [3]: elicited immune responses
- immune response against unrelated sequence (p1454) [4]: failed to induce a relevant unspecific immune response
- immune response against original epitope p4377 [5]: mounted detectable immune responses
- Detection of Aβ/truncated/modified forms [6]: +

- Binding Capacity [7]: 3 (strong binding :>96000)
Molecule: EVWHRLQC [p4419]
- Inhibition Capacity [8]: 2 (strong inhibition (as original epitope; OD of 10 ug peptide below 2 times of original peptide))

- Binding Capacity [7]: 2 (medium binding :24-96000)
Molecule: EVWHRHQC [p4417]
- Inhibition Capacity [8]: 1 (Weaker than original epitope (OD of 10 ug peptide below 5 times of original peptide))

Molecule: EVHHQKLVFC [p4377, reference compound]
- immune response against injected peptide [3]: elicited immune responses
- immune response against unrelated sequence (p1454) [4]: failed to induce a relevant unspecific immune response
- immune response against original epitope p4377 [5]: mounted detectable immune responses

- Binding Capacity [7]: 1 (weak binding :<24000)
Molecule: ELWHRAC [p4786]
- Inhibition Capacity [8]: 1 (Weaker than original epitope (OD of 10 ug peptide below 5 times of original peptide))

- Binding Capacity [7]: 3 (strong binding :>96000)
Molecule: ERWHEKHC [p4418]
- Inhibition Capacity [8]: 2 (strong inhibition (as original epitope; OD of 10 ug peptide below 2 times of original peptide))

- Binding Capacity [7]: 1 (weak binding :<24000)
Molecule: EVWHRGC [p4788]
- Inhibition Capacity [8]: 1 (Weaker than original epitope (OD of 10 ug peptide below 5 times of original peptide))

- OD halfmax 1:X (dilution factor of the parental antibody at half-maximal OD) (dilutionfactor(1:x)) [9]: < 4000
- OD at 10 ug peptide relative to OD of original peptide (inhibition ELISA) [10]: 2 to 3 fold
Molecule: NWFPHPC [p4392]

- OD halfmax dilution factor of the parental antibody (1:X) (dilutionfactor(1:x)) [11]: 40000 to 320000
Molecule: GEIRFELC [p4796]

- OD halfmax dilution factor of the parental antibody (1:X) (dilutionfactor(1:x)) [11]: 40000 to 320000
Molecule: GQIIFQSC [p4668]

- OD halfmax dilution factor of the parental antibody (1:X) (dilutionfactor(1:x)) [11]: 40000 to 320000
Molecule: HQKMIFC [p4794]

- OD halfmax 1:X (dilution factor of the parental antibody at half-maximal OD) (dilutionfactor(1:x)) [9]: < 4000
Molecule: TPLMFWHC [p4733]

- OD halfmax 1:X (dilution factor of the parental antibody at half-maximal OD) (dilutionfactor(1:x)) [9]: < 4000
Molecule: QPNLFYHC [p4713]

- OD halfmax dilution factor of the parental antibody (1:X) (dilutionfactor(1:x)) [11]: 40000 to 320000
Molecule: GELFFEKC [p4795]

- OD halfmax dilution factor of the parental antibody (1:X) (dilutionfactor(1:x)) [11]: 40000 to 320000
Molecule: GSLFFWPC [p4688]

- OD halfmax dilution factor of the parental antibody (1:X) (dilutionfactor(1:x)) [11]: 40000 to 320000
Molecule: GTLIFHHC [p4695]

- OD halfmax 1:X (dilution factor of the parental antibody at half-maximal OD) (dilutionfactor(1:x)) [9]: < 4000
Molecule: QELKRYYC [p4724]

- OD halfmax 1:X (dilution factor of the parental antibody at half-maximal OD) (dilutionfactor(1:x)) [9]: < 4000
Molecule: HEPLFSHC [p4719]

- OD halfmax 1:X (dilution factor of the parental antibody at half-maximal OD) (dilutionfactor(1:x)) [9]: < 4000
Molecule: TSTEMWHC [p4754]

- OD halfmax 1:X (dilution factor of the parental antibody at half-maximal OD) (dilutionfactor(1:x)) [9]: < 4000
Molecule: EDWFFWHC [p4709]

- OD halfmax dilution factor of the parental antibody (1:X) (dilutionfactor(1:x)) [11]: 40000 to 320000
Molecule: Ac-GEIYFERC [p4804]
